# Experimental data from ChEMBL document CHEMBL4673254, “Synthesis and Cytotoxicity Studies of Bioactive Benzofurans from Lavandula agustifolia and Modified Synthesis of Ailanthoidol, Homoegonol, and Egonol” (J Nat Prod, 2020).
# Calls of active or inactive are those of the source. The rule behind the calls is not given here.
# Columns and labels:
# MCF7 [1] = experiment: Cytotoxicity against human MCF7 cells assessed as reduction in cell viability at 1.25 to 20 uM after 72 hrs by Hoechst 33342 staining based assay; format: functional; details: dose 1.25-20 µM
# A549 [2] = experiment: Cytotoxicity against human A549 cells assessed as reduction in cell viability at 1.25 to 20 uM after 72 hrs by Hoechst 33342 staining based assay; format: functional; details: dose 1.25-20 µM
# PC-3 [3] = experiment: Cytotoxicity against human PC-3 cells assessed as reduction in cell viability at 1.25 to 20 uM after 72 hrs by Hoechst 33342 staining based assay; format: functional; details: dose 1.25-20 µM
# HepG2 [4] = experiment: Cytotoxicity against human HepG2 cells assessed as reduction in cell viability at 1.25 to 20 uM after 72 hrs by Hoechst 33342 staining based assay; format: functional; details: dose 1.25-20 µM
# Hep 3B2 [5] = experiment: Cytotoxicity against human Hep3B cells assessed as reduction in cell viability at 1.25 to 20 uM after 72 hrs by Hoechst 33342 staining based assay; format: functional; details: dose 1.25-20 µM
# MCF7 [6] = experiment: Induction of apoptosis in human MCF7 cells assessed as increase in cleaved PARP level at 6 uM after 72 hrs by Western blot analysis; format: functional, cell-based
# A549 [7] = experiment: Induction of apoptosis in human A549 cells assessed as increase in cleaved PARP level at 6 uM after 72 hrs by Western blot analysis; format: functional, cell-based
# PC-3 [8] = experiment: Induction of apoptosis in human PC-3 cells assessed as increase in cleaved PARP level at 6 uM after 72 hrs by Western blot analysis; format: functional, cell-based
# HepG2 [9] = experiment: Induction of apoptosis in human HepG2 cells assessed as increase in cleaved PARP level at 6 uM after 72 hrs by Western blot analysis; format: functional, cell-based
# Hep 3B2 [10] = experiment: Induction of apoptosis in human Hep3B cells assessed as increase in cleaved PARP level at 6 uM after 72 hrs by Western blot analysis; format: functional, cell-based
# [11] = molecular target: Cellular tumor antigen p53 (Homo sapiens) (UniProt P04637); experiment: Activation of P53 in human MCF7 cells assessed as increase in P53 phosphorylation at ser15 residues at 6 uM after 72 hrs by Western blot analysis; format: cell-based; details: filed as activator
# [12] = molecular target: Cellular tumor antigen p53 (Homo sapiens) (UniProt P04637); experiment: Activation of P53 in human A549 cells assessed as increase in P53 phosphorylation at ser15 residues at 6 uM after 72 hrs by Western blot analysis; format: cell-based; details: filed as activator
# [13] = system: Cellular tumor antigen p53 (Homo sapiens), P04637 [UNDEFINED MUTATION]; experiment: Activation of P53 mutant in human PC-3 cells assessed as increase in P53 phosphorylation at ser15 residues at 6 uM after 72 hrs by Western blot analysis; format: cell-based
# [14] = system: Cellular tumor antigen p53 (Homo sapiens), P04637 [UNDEFINED MUTATION]; experiment: Activation of P53 mutant in human Hep3B cells assessed as increase in P53 phosphorylation at ser15 residues at 6 uM after 72 hrs by Western blot analysis; format: cell-based
# MCF7 [15] = experiment: Induction of apoptosis in human MCF7 cells assessed as increase in P53 protein expression at 6 uM after 72 hrs by Western blot analysis; format: functional, cell-based
# A549 [16] = experiment: Induction of apoptosis in human A549 cells assessed as increase in P53 protein expression at 6 uM after 72 hrs by Western blot analysis; format: functional, cell-based
# HepG2 [17] = experiment: Induction of apoptosis in human HepG2 cells assessed as increase in P53 protein expression at 6 uM after 72 hrs by Western blot analysis; format: functional, cell-based
# PC-3 [18] = experiment: Induction of apoptosis in human PC-3 cells assessed as increase in P53 protein expression at 6 uM after 72 hrs by Western blot analysis; format: functional, cell-based
# Hep 3B2 [19] = experiment: Induction of apoptosis in human Hep3B cells assessed as increase in P53 protein expression at 6 uM after 72 hrs by Western blot analysis; format: functional, cell-based
# [20] = molecular target: Cellular tumor antigen p53 (Homo sapiens) (UniProt P04637); experiment: Activation of P53 in human MCF7 cells assessed as increase in p21 protein expression at ser15 residues at 6 uM after 72 hrs by Western blot analysis; format: cell-based; details: filed as activator
# [21] = molecular target: Cellular tumor antigen p53 (Homo sapiens) (UniProt P04637); experiment: Activation of P53 in human A549 cells assessed as increase in p21 protein expression at ser15 residues at 6 uM after 72 hrs by Western blot analysis; format: cell-based; details: filed as activator
# [22] = molecular target: Cellular tumor antigen p53 (Homo sapiens) (UniProt P04637); experiment: Activation of P53 in human HepG2 cells assessed as increase in p21 protein expression at ser15 residues at 6 uM after 72 hrs by Western blot analysis; format: cell-based; details: filed as activator
# [23] = system: Cellular tumor antigen p53 (Homo sapiens), P04637 [UNDEFINED MUTATION]; experiment: Activation of P53 mutant in human Hep3B cells assessed as increase in p21 protein expression at ser15 residues at 6 uM after 72 hrs by Western blot analysis; format: cell-based; details: filed as activator
# [24] = system: Cellular tumor antigen p53 (Homo sapiens), P04637 [UNDEFINED MUTATION]; experiment: Activation of P53 mutant in human PC-3 cells assessed as increase in p21 protein expression at ser15 residues at 6 uM after 72 hrs by Western blot analysis; format: cell-based; details: filed as activator
# [25] = Activation of P53 in human HepG2 cells assessed as increase in P53 phosphorylation at ser15 residues at 6 uM after 72 hrs by Western blot analysis; details: filed as activator
# Cellular tumor antigen p53 (Homo sapiens), sequence (P04637 whole entry, looked up): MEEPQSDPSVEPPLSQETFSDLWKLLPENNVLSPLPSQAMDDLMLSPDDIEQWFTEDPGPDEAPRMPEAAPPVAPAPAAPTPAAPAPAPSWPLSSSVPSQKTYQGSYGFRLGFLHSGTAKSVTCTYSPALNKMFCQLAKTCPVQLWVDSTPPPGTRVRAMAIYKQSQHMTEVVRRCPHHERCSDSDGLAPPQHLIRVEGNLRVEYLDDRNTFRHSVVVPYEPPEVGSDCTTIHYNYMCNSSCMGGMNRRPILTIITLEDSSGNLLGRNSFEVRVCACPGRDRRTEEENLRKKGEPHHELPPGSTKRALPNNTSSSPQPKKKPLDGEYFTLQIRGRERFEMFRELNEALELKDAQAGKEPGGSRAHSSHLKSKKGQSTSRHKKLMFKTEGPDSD
# Cellular tumor antigen p53 (Homo sapiens), P04637 [UNDEFINED MUTATION], sequence (P04637 whole entry, looked up, change not shown): as the sequence (P04637 whole entry, looked up) above
SMILES,Activity (MCF7 [1]),Activity (A549 [2]),Activity (PC-3 [3]),Activity (HepG2 [4]),Activity (Hep 3B2 [5]),Activity (MCF7 [6]),Activity (A549 [7]),Activity (PC-3 [8]),Activity (HepG2 [9]),Activity (Hep 3B2 [10]),Activity [11],Activity [12],Activity [13],Activity [14],Activity (MCF7 [15]),Activity (A549 [16]),Activity (HepG2 [17]),Activity (PC-3 [18]),Activity (Hep 3B2 [19]),Activity [20],also measured
COc1ccc(-c2cc3cc(CCO)cc(OC)c3o2)cc1,inactive,inactive,inactive,inactive,inactive,–,–,–,–,–,–,–,–,–,–,–,–,–,–,–,–
COc1ccc(-c2oc3cc(OC)c(CCO)cc3c2C)cc1,inactive,inactive,inactive,inactive,inactive,–,–,–,–,–,–,–,–,–,–,–,–,–,–,–,–
COc1cc2oc(-c3ccc(O)cc3)cc2cc1CCO,Active,Active,Active,Active,Active,Active,Active,Active,Active,Active,Active,Active,inactive,inactive,Active,Active,Active,inactive,inactive,Active,Activity [21]: Active; Activity [22]: Active; Activity [23]: Active; Activity [24]: Active; Activity [25]: Active
COc1ccc(-c2cc3cc(CCO)c(OC)cc3o2)cc1,inactive,inactive,inactive,inactive,inactive,–,–,–,–,–,–,–,–,–,–,–,–,–,–,–,–
COc1cc(CCO)cc2c(C)c(-c3ccc(O)cc3)oc12,Active,Active,Active,Active,Active,Active,Active,Active,Active,Active,Active,Active,inactive,inactive,Active,Active,Active,inactive,inactive,Active,Activity [21]: Active; Activity [22]: Active; Activity [23]: Active; Activity [24]: Active; Activity [25]: Active
COc1cc(CCO)cc2cc(-c3ccc(O)cc3)oc12,Active,Active,Active,Active,Active,Active,Active,Active,Active,Active,Active,Active,inactive,inactive,Active,Active,Active,inactive,inactive,Active,Activity [21]: Active; Activity [22]: Active; Activity [23]: Active; Activity [24]: Active; Activity [25]: Active
COc1cc2oc(-c3ccc(O)cc3)c(C)c2cc1CCO,Active,Active,Active,Active,Active,–,–,–,–,–,–,–,–,–,–,–,–,–,–,–,–
COc1ccc(-c2oc3c(OC)cc(CCO)cc3c2C)cc1,inactive,inactive,inactive,inactive,inactive,–,–,–,–,–,–,–,–,–,–,–,–,–,–,–,–
